We go through two compounds from patent US11439643B2, “Combination therapy using belinostat and pralatrexate to treat lymphoma” (Spectrum Pharmaceuticals, Inc., priority 2015, dated 2022).

What all share (assay type): cell-based
In experiment [1] the test system is Jeko-1 [Mantle Cell Lymphoma (B cell origin)]. The experiment can be described thus: CellTiter-Glo cell viability / growth inhibition, Jeko-1. As to conditions: Homo sapiens; Jeko-1, belinostat plus pralatrexate concurrently, 72 h; read-out: IC50 in combination studies. Here is the method:
(§1) The growth inhibitory effects of belinostat alone, and in combination with pralatrexate, was assayed in several different human lymphoma cell lines in vitro.
(§2) Serum used in this study is un-dialyzed fetal bovine serum (Atlanta Biologics) and contains<[…] of 5-methyltetrahydrofolate.
(§3) The cultures are maintained in T75-cm^2 culture flasks at 37° C., 95% air humidity, and 5% CO2. The cells are subcultured at 80-90% confluence and are seeded into 96-well plates at 1.5×10^4 cells per well for each experiment.
(§4) Cell Treatment: Treatment is initiated 24 hours after plating. […] Growth Inhibition Assay: Cell viability is determined using the CellTiter-Glo® Luminescent Cell Viability assay from Promega. The CellTiter-Glo® assay is a homogeneous method to determine and compare cell viability using ATP utilization. Following treatment, 100 μl of growth medium is removed and cells are incubated with 100 μl CellTiter-Glo® reagent for two minutes with nutation and incubated at room temperature for ten additional minutes to stabilize the luminescence signal; luminescence is then measured using a Biotek luminometer with values reported in (Lum).
(§5) Data analysis: Cell viability in each assay is expressed as a percentage versus untreated control cells.

Experiment [2] deals with HUT-78 [Cutaneous T lymphocyte (T cell origin)]. The experiment can be described thus: CellTiter-Glo cell viability / growth inhibition, HUT-78. The following applies: Homo sapiens, HuT78. On the procedure:
as §1, §2, §3, §4, §5
(In general: Cellular ATP, detected with luciferase, serves as a proxy for viable cell number.)

In experiment [3] the test system is KARPAS-299 [Human Non-Hodgkin's Ki-positive Large Cell Lymphoma (T cell origin)]. The experiment can be described thus: CellTiter-Glo cell viability / growth inhibition, KARPAS-299. Here is the method: as §1, §2, §3, §4, §5
The test system of experiment [4] is panel of lymphoma cell lines. The experiment can be described thus: CellTiter-Glo cell viability, panel of lymphoma cell lines. As to conditions: Homo sapiens; single agent, 72 hr exposure, range over cell lines; read-out: Single agent IC50 values across a panel of lymphoma cell lines. On the procedure: as §1, §2, §3
Cell Treatment: Treatment is initiated 24 hours after plating.
Growth Inhibition Assay: Cell viability is determined using the CellTiter-Glo® Luminescent Cell Viability assay from Promega. The CellTiter-Glo® assay is a homogeneous method to determine and compare cell viability using ATP utilization. Following treatment, 100 μl of growth medium is removed and cells are incubated with 100 μl CellTiter-Glo® reagent for two minutes with nutation and incubated at room temperature for ten additional minutes to stabilize the luminescence signal; luminescence is then measured using a Biotek luminometer with values reported in (Lum).
as §5

The mark [5] stands for this setting: HUT-78, belinostat plus pralatrexate concurrently, 72 h, read-out: IC50 in combination studies.
Setting [6] is: HUT-78, single agent, 72 hr exposure, read-out: Single Agent IC50.
Where [7] appears, read: KARPAS-299, belinostat plus pralatrexate concurrently, 72 h, read-out: IC50 in combination studies.

Read-outs that look alike come from different tables or passages of the source.

Take `O=C(/C=C/c1cccc(S(=O)(=O)Nc2ccccc2)c1)NO` [Belinostat, (2E)-N-hydroxy-3-[3-(phenylsulfamoyl)phenyl]prop-2-enamide]: the half-maximal inhibitory concentration (IC50) was 87 nM in experiment [1]; 170 nM in experiment [2] (setting [5]); 97 nM in experiment [2] (setting [6]); 127 nM in experiment [3] (setting [7]); 90 to 210 nM in experiment [4].
For `C#CCC(Cc1cnc2nc(N)nc(N)c2n1)c1ccc(C(=O)N[C@@H](CCC(=O)O)C(=O)O)cc1` (mixture of isomers) [Pralatrexate, (2S)-2-[[4-[(1RS)-1-[(2,4-diaminopteridin-6-yl)methyl]but-3ynyl]benzoyl]amino]pentanedioic acid], the IC50 is 2.1 nM in experiment [1]; 4.1 nM in experiment [2] (setting [5]); 2.8 nM in experiment [2] (setting [6]); 3.6 nM in experiment [3] (setting [7]); 24 nM in experiment [3] (KARPAS-299, single agent, 72 hr exposure, read-out: Single Agent IC50); 2 to 25 nM in experiment [4].

Broadly, the IC50 is the midpoint of a concentration-inhibition curve.
